The source of these data is patent US20250339542A1, “CONVERSION OF A BIOLOGICALLY SILENT MIRNA BINDING SMALL MOLECULE TO AN MIRNA DEGRADER” (University of Florida Research Foundation, Incorporated, priority 2020, published 2025).

Experiment [1] relates to 3×3 ILL. In words: 2DCS with HiT-StARTS fitness ranking of bound RNA motifs. The format is binding. As to the method: 2DCS: Primary Screening. The microarrays were constructed as previously described.^10 Microarrays were by coating glass plates with 25 mL of molten 1% agarose and allowing it to set for 2 h. After setting, the plates were pinned with compound using a Biomek® NX robotic pintool, pinning 100 nL of each compound. The array was dried in a fume hood overnight and then washed in 1× FB supplemented with 0.1% (v/v) Tween-20 and then Nano pure water two times each followed by air drying on the bench top. Once dried, 200 pmol of radiolabeled 3×3 ILL was added to 0.5 mL of 1× FB and folded by heating to 95° C. for 1 min and then cooling to room temperature slowly on the benchtop. Magnesium chloride was added after cooling. Once cooled the solution was brought to a volume of 2.5 mL with 1× FB. The microarrays were pre-hybridized with 1× HB for 5 min and the excess buffer was removed by touching the edge with a Kimwipe. The arrays were then Hybridized with the RNA for 30 min, spreading the solution evenly over the surface with parafilm. After hybridization, the array was washed four times with 1× HB followed by air drying and imaging by autoradiography. Hits were identified as signals with an intensity greater than 3-fold over background radiation on the array. Positive control compounds Mitoxantrone was present on all arrays.
2DCS: tRNA Counter Screen. To remove non-specific RNA binders hits identified above were subjected to competitive screening with cold yeast tRNA. The assay was carried out as previously described.^10 Briefly, arrays were constructed on Inkjet Superfrost microscope slides (Fisher) by applying 2 mL of molten 1% agarose onto each slide and curing them for 2 h. Once cured, 200 nL of each compound was spotted onto each plate and the plates dried overnight as previously described. After drying, the slides were washed three times for 5 min each with nano pure water and dried under a stream of compressed air. The slides were then pre-hybridized with 1× HB for 5 min, and then incubated with 100 pmol of folded hot RNA and tRNA (1× relative to the total moles of compound spotted) in 0.4 mL of 1× FB for 30 min. The slides were then washed with 1× HB five times, air dried, and imaged to identify library specific binders. […]
In these equations n1 is the observed reads for all selected RNAs in the RNA-seq data; n2 is the total reads observed for the starting library; p1 is the proportion of the reads for a particular sequence to the total reads in the selected library; p2 is the proportion of the reads for a particular sequence to the total reads of the starting library. We can then use Zobs to rank each sequence, and therefore each RNA motif, by its affinity or fitness which is calculated according to equation (5) below described previously:^10 […]

Experiment [2] has as its system pre-miR-155. Description: Chem-CLIP and competitive Chem-CLIP of pre-miR-155 in MDA-MB-231 cells. The format is cell-based, human. The conditions noted are these: for enrichment of pre-miR-155 in pulled down fractions (Chem-CLIP): 1×10^−7 M (100 nM). On the procedure:
Cellular Chem-CLIP and Competitive-Chem-CLIP of pre-miR-155. MDA-MB-231 cells at 80% confluency in 100 mm dish were treated with Chem-CLIP probe at the indicated concentration overnight. Then cells were washed with DPBS and harvested by scrapping. Total RNA was extracted by using the miRNeasy mini kit (Qiagen) according to the manufacture's protocol. Then, 50 g of total RNA was treated to 150 L of Dynabeads MyOne Streptavidin C1 (Invitrogen) slurry in 500 L of 1×DNA buffer (8.0 mM Na2PO4, 185 mM NaCl, pH=7.0) and shaked for 6 h. The beads then captured on a Magnetic rack and washed with DPBS for 4 times. The bound RNA was then cleaved from beads in 150 μL of 95% formamide with 10 mM EDTA at 95° C. for 30 min. Released RNA was then cleaned up by Zymo Quick-RNA MiniPrep kit per the manufacture's protocol. RT-qPCR was carried out on pre-miR-155 as previously described above by using 10 ng of input cDNA from before and after pulldown RNA samples. Enrichment of pre-miR-155 was calculated as previously reported^15. Competitive Chem-CLIP was completed by pre-treating MDA-MB-231 cells with compound B for 2 h followed by dosing of Chem-CLIP at 100 nM overnight. Sample preparation and data analysis were performed as for Chem-CLIP.

Experiment [3] concerns pre-miR-155. In words: In vitro RNase L cleavage assay of pre-miR-155. The format is biochemical, human. On the procedure: pre-miR-155 was then incubated with compound 3 in vitro in an RNase L cleavage assay.
PCR amplification and transcription of DNA templates. PCR amplification of DNA templates of pre-miR-155 and mutants were performed using the pre-miR-155 forward primer containing T7 RNA polymerase promoter and a reverse primer common to both the pre-miR-155 Wild type and Mutant templates. The sequence of Oligonucleotides used in this study can be found in Table 4. PCR amplification was carried out in 350 μL of 1× PCR buffer (10 mM Tris-HCl, pH 9.0, 50 mM KCl, and 0.1% (v/v) Triton X-100), 0.33 mM dNTPs, 4.25 mM MgCl2, 2 μM of each primer(100 μM), and 1.7 μL of Taq DNA polymerase. Thermocycling was done for 35 cycles at 95° C. for 30 s, 55° C. for 30 s, and 72° C. for 60 s. PCR products were confirmed by a 2.5% Agarose Gel stained with ethidium bromide before in vitro transcription. In vitro RNA transcription for the target RNAs were carried out using house made reagents as described previously.^11

Experiment [4] has as its system miR-155. In words: RT-qPCR of mature miR-155 levels in MDA-MB-231 cells. It counts as cell-based, human. The conditions noted are these: 48 h. As to the method: (§1) Tissue Culture. MDA-MB-231 cells were obtained from ATCC (HTB-26) and cultured in RPMI medium with […] & 25 mM HEPES (Corning) supplemented with 10% FBS (sigma). MCF-10a cells were obtained from ATCC(CRL-10317) and cultured in DMEM/F12 50/50 with glutamine and 15 mM HEPES(Corning) containing 20% FBS(Sigma), 1×Antibiotic-Antimycotic(Corning), 20 ng/mL of human epidermal growth factor(Pepro Tech Inc.), 100 μg/mL of insulin and […] of hydrocortisone (Pfizer &Bauer). HUVECs were cultured in EGM (Lonza) made using the EGM-2 bullet kit (Lonza) per the manufacturers protocol.
(§2) RT-qPCR analysis for Mature, Primary and Precursor miRNAs and mRNA levels. After compound treatment for the indicated time (MDA-MB-231 48 h and HUVECs 24 h), total RNA was extracted using the Zymo Quick-RNA mini prep kit according to the manufacturers protocol. Reverse Transcription (RT) for microRNAs and pri- and pre-miR-155 were done on 200 ng of RNA using the miScript II RT kit (Qiagen) according to the manufacturer's protocol. The mRNAs were done using QScript (Quanta Bio) on 200 ng of total RNA according to the manufacturer's protocol. RT-qPCR was done as mentioned above. The obtained data was analyzed by using the ΔΔCt method as described previously. For the washout experiment, MDA-MB-231 cells were treated with 3 for 48 h. Then the media was changed with fresh growth medium without compound and the cells incubated for 12, 24 and 36 h with RNA harvested and pre-miR-155 levels analyzed as described above.
(§3) RT-qPCR analysis for Mature, Primary and Precursor miRNAs and mRNA levels part. Relative RNA expression was determined by using ΔΔCt method with 18S rRNA as an internal control. Normalized fold change was calculated with the equation as below: […]

For experiment [5], the system named is pre-miR-155's C-bulge (5′UCG/3′A_U). In words: MST binding to pre-miR-155 C bulge. The conditions noted are these: microscale thermophoresis. Further details: species or system human. As to the method: (§4) Microscale thermophoresis study of binding. Binding constants were measured by MST using premium capillaries (Nanotemper) using serial dilations of compound from 50 μM to 1 nM in 1:2 dilutions. RNA-Cy5-155-A (20 nM) or Cy5-155-AU (20 nM), Cy5-155-C(20 nM), and Cy5-155-GC (20 nM) were annealed in 2×DNA buffer by heating at 70° C. with cooling to room temperature on the bench. Then the 2× compound and 2× RNA solutions were mixed together in a 1:1 ratio and allowed to equilibrate at room temperature for 10 min. Then, the capillaries were loaded and run on a […] under previously described conditions.^14 MST power was set to 40% and the LED power was set to 3%.

In experiment [6] the test system is pre-miR-155. Description: RT-qPCR of pre-miR-155 levels in MDA-MB-231 cells. The conditions noted are these: MDA-MB-231 cells. The format is cell-based, human. On the procedure: as §1, §2, §3
Experiment [7] concerns GC paired control. In words: MST binding to GC paired control. The conditions noted are these: microscale thermophoresis. On the procedure: as §4
For experiment [8], the system named is base paired control RNA. In words: MST binding to base paired control RNA (A bulge mutated to AU pair). The conditions noted are these: microscale thermophoresis. On the procedure:
as §4

In experiment [9] the target is pre-miR-155's 5′GAU/3′C_A bulge. In words: Microscale thermophoresis (MST) binding to pre-miR-155 A bulge. Details: species or system human. As to the method:
as §4

Experiment [10] deals with pre-miR-155. In words: RT-qPCR of pre-miR-155 levels in HUVECs. The format is cell-based, human. As to the method: as §1, §2
The subject of experiment [11] is miR-155. In words: RT-qPCR of miR-155 levels in HUVECs. The format is cell-based, human. On the procedure:
as §1, §2

Each structure is given as a SMILES string. Several values for one entry are separate records, joined by “and”; a condition that tells them apart may be missing. Equal entries are not always repeated. Entries after “also recorded” stand apart in the source; their conditions may differ.

Turning to `CCCCCCCCCCCc1c(CCCCCCCCCCC)[n+](C)c(CCCO)n1C` [Compound C7], in [1], the “Fitness Score of the next motif” value is recorded as 46% and the “fitness score of highest affinity interaction, alternating (AU)(UA) pairs” value turned out to be 100%.

`CC(=O)NCCCC[C@H](NC(=O)CCCc1ccc(N(CCCl)CCCl)cc1)C(=O)NCCNC(=O)CCCCC1SCC2NC(=O)NC21` (stereo partly drawn) [Compound 7]: the “enrichment of pre-miR-155 in pulled down fractions (Chem-CLIP)” value in [2] is on record as “no enrichment; also recorded: unable to pull down”.

`CCOC(=O)C1=C(Nc2ccccc2)S/C(=C\c2ccc(OCCOCCOCCOCCNC(C)=O)c(O)c2)C1=O` [Compound 4]: the “cleavage of pre-miR-155” value in [3] is “no significant cleavage; also recorded: unable to cleave”. Further, the “effect on miR-155 levels / miR-155 biogenesis” value in [4] is on record as “no effect; also recorded: does not affect”.

Take `Cc1c(CCC(=O)NCCCC[C@H](NC(=O)CCCc2ccc(N(CCCl)CCCl)cc2)C(=O)NCCNC(=O)CCCCC2SCC3NC(=O)NC32)[n+](-c2c(C(C)C)cccc2C(C)C)cn1-c1c(C(C)C)cccc1C(C)C` (stereo partly drawn) [Compound 6]: the “enrichment of pre-miR-155 in pulled down fractions (Chem-CLIP)” value in experiment [2] was 4 fold and 7 fold.

Turning to `Cc1cc(C)c(-n2c[n+](-c3c(C)cc(C)cc3C)c3c2C[C@@]2(C)[C@@H](CC[C@@H]4[C@@H]2CC[C@]2(C)[C@@H]([C@H](C)CCCC(C)C)CC[C@@H]42)C3)c(C)c1` [Compound C11], in experiment [1], the “Fitness Score of the next motif” value is recorded as 56% and the “fitness score of highest affinity interaction, alternating (AU)(UA) pairs” value was 100%.

For the compound `CCCNC(=O)CCc1c(C)n(-c2c(C(C)C)cccc2C(C)C)c[n+]1-c1c(C(C)C)cccc1C(C)C` [Compound 2], in experiment [5], the “binding to C bulge” value is recorded as “Neither compound (1 or 2) had any affinity; also recorded: Neither molecule showed significant binding”. Also, the “effect on pre-miR-155 levels” value in experiment [6] is “no effect”. The “effect on miR-155 levels / miR-155 biogenesis” value in experiment [4] is reported as “no effect”. For the same compound, in [7], the “binding to GC paired control” value is “Neither compound (1 or 2) had any affinity”. The “binding to base paired control RNA” value in experiment [8] is listed as “no affinity; also recorded: ablated binding; also recorded: Neither molecule showed significant binding”. The compound further yielded a Kd in [9] of 552 ± 120 nM.

Take `CCCCCCCCCCCc1c(CCCCCCCCCCC)[n+](-c2c(C(C)C)cccc2C(C)C)cn1-c1c(C(C)C)cccc1C(C)C` [Compound 1]: the “binding to C bulge” value in experiment [5] is listed as “Neither compound (1 or 2) had any affinity; also recorded: Neither molecule showed significant binding”. Moreover, in experiment [10], the “effect on pre-miR-155 levels” value is given as “no effect”. The “competition of cleavage by 3” value in [10] (3 at 1×10^−8 M, 1 at 1×10^−7 and 1×10^−6 M) is “dose dependently reduced cleavage”. The “concentration of 1 giving complete ablation of cleavage by 3” value in [6] (co-treated with 3 at 1×10^−7 M, mature, pre- and pri-miR-155) was determined as 1000 nM. Also, in experiment [4], the “effect on miR-155 levels / miR-155 biogenesis” value was “no effect; also recorded: unable to inhibit”. Besides, the “effect on miR-155 levels” value in [11] was “no effect”. In addition, the “binding to GC paired control” value in [7] is on record as “Neither compound (1 or 2) had any affinity”. Moreover, the “binding to base paired control RNA” value in [8] was “no binding; also recorded: Neither molecule showed significant binding”. Also, in experiment [2] (Homo sapiens, 6 held constant at 1×10^−7 M, read-out: IC50 of reduction of pre-miR-155 enrichment (C-Chem-CLIP)), the IC50 turned out to be 100 nM. The Kd in experiment [9] came out at 490 ± 122 nM.
